Results: the NIST ThermoML archive (doi:10.1021/acs.jced.8b00229)

Settings: Liquid, Vibrating tube method

FCC(F)(F)F [1,1,1,2-tetrafluoroethane]
Settings	mass density [kg/m3]
283.55 K, 40000 kPa	1376.3
283.55 K, 60000 kPa	1413.1
283.55 K, 80000 kPa	1443.2
283.56 K, 20000 kPa	1328.7
283.57 K, 5000 kPa	1279.4
283.57 K, 10000 kPa	1297.9
303.39 K, 1000 kPa	1188.5
303.39 K, 5000 kPa	1212.5
303.39 K, 10000 kPa	1237
303.39 K, 20000 kPa	1275.9
303.39 K, 40000 kPa	1332.1
303.39 K, 80000 kPa	1407.4
303.4 K, 60000 kPa	1373.9
322.89 K, 3000 kPa	1120.9
322.91 K, 5000 kPa	1137.8
322.91 K, 10000 kPa	1172
322.93 K, 20000 kPa	1221.5
322.93 K, 40000 kPa	1288.4
322.93 K, 60000 kPa	1335.8
322.94 K, 80000 kPa	1372.8
342.75 K, 3000 kPa	1017.4
342.75 K, 5000 kPa	1047.5
342.76 K, 10000 kPa	1098.8
342.77 K, 20000 kPa	1164.1
342.77 K, 40000 kPa	1243.6
342.78 K, 60000 kPa	1297.3
342.78 K, 80000 kPa	1338.2
362.57 K, 5000 kPa	924.9
362.57 K, 10000 kPa	1015.4
362.58 K, 20000 kPa	1103.4
362.59 K, 40000 kPa	1198.4
362.59 K, 60000 kPa	1258.8
362.59 K, 80000 kPa	1303.8

C=CCCCCC [1-heptene]
Settings	mass density [kg/m3]
283.52 K, 15000 kPa	718.3
283.52 K, 20000 kPa	722.2
283.52 K, 25000 kPa	725.9
283.52 K, 30000 kPa	729.4
283.52 K, 35000 kPa	732.9
283.52 K, 40000 kPa	736.1
283.52 K, 55000 kPa	745.3
283.53 K, 100 kPa	705.5
283.53 K, 500 kPa	705.9
283.53 K, 1000 kPa	706.4
283.53 K, 3000 kPa	708.2
283.53 K, 5000 kPa	710
283.53 K, 10000 kPa	714.3
283.53 K, 45000 kPa	739.3
283.53 K, 50000 kPa	742.4
283.53 K, 60000 kPa	748.2
283.53 K, 80000 kPa	759
283.53 K, 90000 kPa	763.9
283.54 K, 70000 kPa	753.8
283.54 K, 100000 kPa	768.7
293.45 K, 100 kPa	697
293.45 K, 500 kPa	697.4
293.45 K, 1000 kPa	697.9
293.45 K, 5000 kPa	701.8
293.45 K, 20000 kPa	714.8
293.45 K, 25000 kPa	718.7
293.45 K, 30000 kPa	722.4
293.45 K, 35000 kPa	726
293.45 K, 55000 kPa	739
293.45 K, 60000 kPa	742
293.45 K, 70000 kPa	747.8
293.45 K, 80000 kPa	753.2
293.45 K, 90000 kPa	758.3
293.45 K, 100000 kPa	763.1
293.46 K, 3000 kPa	699.9
293.46 K, 10000 kPa	706.4
293.46 K, 15000 kPa	710.7
293.46 K, 40000 kPa	729.4
293.46 K, 45000 kPa	732.8
293.46 K, 50000 kPa	736
303.37 K, 100 kPa	688.4
303.37 K, 500 kPa	688.9
303.37 K, 55000 kPa	732.8
303.37 K, 100000 kPa	757.7
303.38 K, 1000 kPa	689.5
303.38 K, 3000 kPa	691.6
303.38 K, 5000 kPa	693.6
303.38 K, 10000 kPa	698.5
303.38 K, 15000 kPa	703.1
303.38 K, 20000 kPa	707.4
303.38 K, 25000 kPa	711.5
303.38 K, 30000 kPa	715.4
303.38 K, 35000 kPa	719.2
303.38 K, 40000 kPa	722.8
303.38 K, 45000 kPa	726.2
303.38 K, 50000 kPa	729.5
303.38 K, 60000 kPa	735.9
303.38 K, 70000 kPa	741.8
303.38 K, 80000 kPa	747.4
303.38 K, 90000 kPa	752.6
313.29 K, 100 kPa	680.6
313.3 K, 500 kPa	681.1
313.3 K, 5000 kPa	686.2
313.3 K, 20000 kPa	700.9
313.3 K, 25000 kPa	705.2
313.3 K, 30000 kPa	709.3
313.3 K, 35000 kPa	713.3
313.3 K, 40000 kPa	717
313.3 K, 45000 kPa	720.6
313.3 K, 50000 kPa	724
313.3 K, 55000 kPa	727.4
313.3 K, 60000 kPa	730.6
313.3 K, 70000 kPa	736.8
313.3 K, 80000 kPa	742.6
313.3 K, 90000 kPa	748
313.3 K, 100000 kPa	753.1
313.31 K, 1000 kPa	681.8
313.31 K, 3000 kPa	684
313.31 K, 10000 kPa	691.3
313.31 K, 15000 kPa	696.3
323.18 K, 100 kPa	670.5
323.18 K, 500 kPa	671
323.18 K, 1000 kPa	671.6
323.18 K, 3000 kPa	674.1
323.18 K, 10000 kPa	682
323.18 K, 25000 kPa	696.6
323.18 K, 30000 kPa	700.9
323.18 K, 35000 kPa	705
323.18 K, 40000 kPa	708.9
323.18 K, 45000 kPa	712.7
323.18 K, 50000 kPa	716.3
323.18 K, 55000 kPa	719.7
323.18 K, 60000 kPa	723.1
323.18 K, 70000 kPa	729.6
323.18 K, 80000 kPa	735.5
323.19 K, 5000 kPa	676.4
323.19 K, 15000 kPa	687.1
323.19 K, 20000 kPa	692
323.19 K, 90000 kPa	741.1
323.19 K, 100000 kPa	746.4
333.04 K, 100 kPa	661.5
333.04 K, 500 kPa	662
333.04 K, 1000 kPa	662.7
333.05 K, 3000 kPa	665.3
333.05 K, 5000 kPa	667.9
333.05 K, 10000 kPa	673.8
333.05 K, 15000 kPa	679.3
333.05 K, 20000 kPa	684.5
333.05 K, 25000 kPa	689.3
333.05 K, 30000 kPa	693.8
333.05 K, 35000 kPa	698.1
333.05 K, 40000 kPa	702.2
333.05 K, 45000 kPa	706.2
333.05 K, 50000 kPa	709.9
333.05 K, 55000 kPa	713.5
333.05 K, 60000 kPa	717
333.05 K, 70000 kPa	723.7
333.05 K, 80000 kPa	729.9
333.05 K, 90000 kPa	735.7
333.05 K, 100000 kPa	741.1
342.91 K, 100 kPa	652.7
342.91 K, 500 kPa	653.3
342.91 K, 1000 kPa	654
342.91 K, 3000 kPa	656.9
342.91 K, 15000 kPa	671.8
342.91 K, 30000 kPa	687.1
342.91 K, 35000 kPa	691.7
342.92 K, 5000 kPa	659.6
342.92 K, 10000 kPa	666
342.92 K, 20000 kPa	677.4
342.92 K, 25000 kPa	682.4
342.92 K, 40000 kPa	696
342.92 K, 45000 kPa	700.1
342.92 K, 50000 kPa	703.9
342.92 K, 55000 kPa	707.7
342.92 K, 60000 kPa	711.3
342.92 K, 70000 kPa	718.3
342.92 K, 80000 kPa	724.6
342.92 K, 90000 kPa	730.6
342.92 K, 100000 kPa	736.2
352.8 K, 100 kPa	644.3
352.8 K, 500 kPa	644.9
352.8 K, 40000 kPa	690
352.8 K, 45000 kPa	694.3
352.8 K, 50000 kPa	698.4
352.8 K, 70000 kPa	713.2
352.8 K, 80000 kPa	719.7
352.8 K, 90000 kPa	725.9
352.8 K, 100000 kPa	731.7
352.81 K, 1000 kPa	645.7
352.81 K, 3000 kPa	648.8
352.81 K, 5000 kPa	651.6
352.81 K, 10000 kPa	658.4
352.81 K, 15000 kPa	664.7
352.81 K, 20000 kPa	670.5
352.81 K, 25000 kPa	675.8
352.81 K, 30000 kPa	680.9
352.81 K, 35000 kPa	685.6
352.81 K, 55000 kPa	702.3
352.81 K, 60000 kPa	706
362.68 K, 100 kPa	633.6
362.68 K, 500 kPa	634.3
362.68 K, 100000 kPa	725.7
362.69 K, 1000 kPa	635
362.69 K, 3000 kPa	638.5
362.69 K, 5000 kPa	641.7
362.69 K, 20000 kPa	661.9
362.69 K, 30000 kPa	672.8
362.69 K, 35000 kPa	677.8
362.69 K, 40000 kPa	682.5
362.69 K, 45000 kPa	687
362.69 K, 50000 kPa	691.2
362.69 K, 55000 kPa	695.2
362.69 K, 60000 kPa	699.1
362.69 K, 70000 kPa	706.6
362.69 K, 80000 kPa	713.4
362.69 K, 90000 kPa	719.7
362.7 K, 10000 kPa	649.1
362.7 K, 15000 kPa	655.8
362.7 K, 25000 kPa	667.6
